Values joined by “and” are separate entries in the source; they are usually repeats but may differ in a detail not shown here. Equal values may be shown once. Read-outs that look alike come from different tables or passages of the source. Ends that are not written are not given here.
What was measured:
Type in all cases: cell-based
[1] = system: E. coli #2, NR 698 (MC4100/ptD4213)
Source text: (§1) Organic phase extract, SPE eluates and HPLC-fractions were screened for antibacterial activity against two strains of Gram-positive and two strains of Gram-negative bacteria; Corynebacterium glutamicum (ATCC 13032), Staphylococcus aureus (ATCC 9144), Pseudomonas aeruginosa #1 (ATCC 27853) and Escherichia coli #1 (ATCC 25922). For extended antimicrobial bioactivity screening, the following bacterial strains were used, three strains of Gram-positive bacteria; S. epidermidis #1 (5179-R1) kindly provided by Holger Rohde, S. epidermidis #2, RP62A (ATCC 35984) and Bacillus subtilis (ATCC 23857) in addition to the Gram-negative P. aeruginosa #2, PA 01 (ATCC 15692, DSM 19880) and E. coli #2, NR 698 (MC4100/ptD4213).
(§2) Cultures stored at -80°C were smeared onto agar plates and cultured for 24 h at 35°C. One colony of each bacterial strain was transferred to 5 ml liquid Müller-Hinton (MH, Difco, Lawrence, KS, USA) medium in a glass tube and left shaking at room temperature overnight at 600 rpm. The cultures of actively growing bacteria (20 μl) were further inoculated in 5 ml MH medium and left shaking for 2 h at room temperature. The antibacterial assays were performed as previously described by. Briefly, the bacterial cultures were diluted with medium to 1.3–1.5 × 10^4 bacteria/ml final concentrations and an aliquot of 50 μl was added to each well in 96-well Nunclon^TM microtiter plates (Nagle Nunc Int., Denmark) preloaded with 50 μl test sample solutions, i.e. extracts, eluates or peptides.
(§3) The test plates were incubated for 24 h at 35°C with optical density (OD595) recorded every hour using an Envision 2103 multilabel reader, controlled by the Wallac Envision manager (PerkinElmer, CT, USA). Antibacterial activity was defined as a sample showing >90% inhibition (as measured by optical density) compared to the negative (growth) controls, consisting of bacteria and water. Oxytetracycline (20 μM) served as a positive (inhibition) control. The minimum inhibitory concentration (MIC) was defined as the lowest concentration of a sample displaying >90% inhibition.
(§4) ACN-phases and SPE eluates were tested with two-fold serial dilutions ranging from 5.0 to 0.005 mg/ml (5.0, 2.5, 1.25, 0.63, 0.31, 0.16, 0.08, 0.04, 0.02, 0.01, 0.005 mg/ml) whereas HPLC-fractions were tested undiluted for antibacterial activity. Pure, native peptides and synthetic peptides (described in section 2.11) were tested for antimicrobial activity in concentrations ranging from 100 to 0.1 μM in two-fold serial dilutions (100, 50, 25, 12.5, 6.25, 3.13, 1.56, 0.78, 0.39, 0.20, 0.10 μM). Antimicrobial assays involving natural peptides (i.e. fractionated natural material) were run only once due to limited quantities, whereas all other assays were run in triplicates.

[2] = system: Bacillus subtilis (ATCC 23857)
Source text: as §1, §2, §3, §4

[3] = system: Corynebacterium glutamicum (ATCC 13032)
Source text: as §1, §2, §3, §4

[4] = system: S. epidermidis #2, RP62A (ATCC 35984)
Source text: as §1, §2, §3, §4

[5] = system: Staphylococcus aureus (ATCC 9144)
Source text: as §1, §2, §3, §4

[6] = system: S. epidermidis #1 (5179-R1)
Source text: as §1, §2, §3, §4

[7] = system: P. aeruginosa #2, PA 01 (ATCC 15692, DSM 19880)
Source text: as §1, §2, §3, §4

[8] = system: Pseudomonas aeruginosa #1 (ATCC 27853)
Source text: as §1, §2, §3, §4

[9] = system: Escherichia coli #1 (ATCC 25922)
Source text: as §1, §2, §3, §4

human red blood cells = experiment: Haemolytic activity assay; conditions: human red blood cells in PBS, 1 h at 37°C, absorbance at 550 nm, 0.05% Triton X-100 = 100%, duplicates
Method: Synthesised peptide analogues of EeCentrocin 1 and 2 were screened for eukaryotic cell-toxicity with a haemolytic activity assay using human red blood cells as described previously. The assay was performed on 96-well U-shaped microtiter plates (Nagle Nunc) with 50 μl peptide sample, 40 μl phosphate-buffered saline (PBS) and 10 μl red blood cells. The final peptide concentrations ranged from 100 to 0.1 μM in two-fold serial dilutions. After one hour of incubation at 37°C in a shaker, the plate was centrifuged at 200 g for 5 min and the supernatants (60 μl) were carefully transferred to a new flat-bottomed polycarbonate microtiter plate (Nagle Nunc) and absorbance at 550 nm was measured on a Synergy H1 multimode reader (BioTek, VT, USA). Cell suspension added 0.05% Triton X-100 (Sigma-Aldrich, MO, USA) in PBS served as positive (100% haemolysis) control and cell suspension added PBS served as negative (0% haemolysis) control. The percent haemolysis was calculated using the formula [(Asample-Abaseline)/(Atriton-Abaseline)]×100. The experiment was performed in duplicates.

[10] = MH medium, 24 h at 35°C, OD595, >90% inhibition, value of Table 2, triplicates
[11] = MH medium, 24 h at 35°C, OD595, lowest concentration with >90% inhibition, value of Table 2, native peptides run once, synthetic in triplicates
[12] = MH medium, 24 h at 35°C, OD595, >90% inhibition, value of Table 2, native peptides run once, synthetic in triplicates

WGHKLRSSWNKVKHAVKKGAGYASGACRVLGH [EeCentrocin 2 HC]
11.7%: % haemolysis (human red blood cells; 25.0 μM)
6.25 µM: MIC E. coli #2 [1, 10] | MIC raw data E. coli #2 ([1]; parallel 1 of three) | MIC B. subtilis ([2]; MH medium, 24 h at 35°C, OD595, lowest concentration with >90% inhibition, value of Table 2, synthetic peptides in triplicates) | MIC raw data B. subtilis ([2]; parallel 1 of three) | MIC S. aureus [5, 11] | MIC raw data S. aureus ([5]; parallel 1 of three) | MIC raw data S. aureus ([5]; parallel 2 of three) | MIC raw data S. aureus ([5]; parallel 3 of three) | MIC P. aeruginosa #2 [7, 10] | MIC raw data P. aeruginosa #2 ([7]; parallel 1 of three) | MIC raw data P. aeruginosa #2 ([7]; parallel 2 of three)
56.3% and 56.4%: % haemolysis (human red blood cells; 100 μM)
18.9%: % haemolysis (human red blood cells; 50.0 μM)
3.13 µM: MIC raw data E. coli #2 ([1]; parallel 2 of three) | MIC raw data E. coli #2 ([1]; parallel 3 of three) | MIC raw data B. subtilis ([2]; parallel 2 of three) | MIC raw data B. subtilis ([2]; parallel 3 of three) | MIC S. epidermidis #2 [4, 10] | MIC raw data S. epidermidis #2 ([4]; parallel 1 of three) | MIC raw data S. epidermidis #2 ([4]; parallel 2 of three) | MIC raw data S. epidermidis #2 ([4]; parallel 3 of three) | MIC S. epidermidis #1 [6, 10] | MIC raw data S. epidermidis #1 ([6]; parallel 1 of three) | MIC raw data S. epidermidis #1 ([6]; parallel 2 of three) | MIC raw data P. aeruginosa #2 ([7]; parallel 3 of three)
1.56 µM: MIC raw data S. epidermidis #1 ([6]; parallel 3 of three) | MIC E. coli #1 [9, 12] | MIC raw data E. coli #1 ([9]; parallel 1 of three)
0.78 µM: MIC C. glutamicum [3, 11] | MIC raw data C. glutamicum ([3]; parallel 1 of three) | MIC raw data C. glutamicum ([3]; parallel 2 of three) | MIC raw data C. glutamicum ([3]; parallel 3 of three) | MIC P. aeruginosa #1 [8, 12] | MIC raw data P. aeruginosa #1 ([8]; parallel 1 of three) | MIC raw data P. aeruginosa #1 ([8]; parallel 2 of three) | MIC raw data P. aeruginosa #1 ([8]; parallel 3 of three) | MIC raw data E. coli #1 ([9]; parallel 2 of three) | MIC raw data E. coli #1 ([9]; parallel 3 of three)
